Among the data in ChEMBL document CHEMBL1201862, “PubChem BioAssay data set” (2004) are IC50, EC50 and AC50 values, retold here.

Calls of active or inactive are those of the source.

In data set [1] the target is T1, Mannose-6-phosphate isomerase (Homo sapiens, UniProt P34949).
T1 sequence (P34949 whole entry): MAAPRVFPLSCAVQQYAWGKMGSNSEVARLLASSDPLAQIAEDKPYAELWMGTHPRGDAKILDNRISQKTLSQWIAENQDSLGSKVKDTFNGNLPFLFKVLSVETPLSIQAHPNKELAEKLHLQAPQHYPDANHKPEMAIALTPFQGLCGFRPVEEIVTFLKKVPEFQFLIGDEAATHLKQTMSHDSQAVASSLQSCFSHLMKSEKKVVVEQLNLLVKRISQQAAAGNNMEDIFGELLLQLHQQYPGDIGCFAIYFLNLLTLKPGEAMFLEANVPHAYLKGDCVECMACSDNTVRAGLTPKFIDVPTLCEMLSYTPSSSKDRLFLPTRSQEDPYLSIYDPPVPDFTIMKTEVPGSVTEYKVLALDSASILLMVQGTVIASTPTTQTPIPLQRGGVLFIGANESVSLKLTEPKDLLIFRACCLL
Briefly: PMI enzyme inhibitors, confirmation, biochemical, fluorescence intensity (AID 1535).

For the next data set, the target named is Phosphomannomutase 2 (Homo sapiens, UniProt O15305). Put plainly: Counter screen SAR assay for PMM2 inhibitors via a fluorescence intensity assay. [Related pubchem assays (depositor defined):AID1545, AID1574].
Phosphomannomutase 2, sequence (O15305 whole entry): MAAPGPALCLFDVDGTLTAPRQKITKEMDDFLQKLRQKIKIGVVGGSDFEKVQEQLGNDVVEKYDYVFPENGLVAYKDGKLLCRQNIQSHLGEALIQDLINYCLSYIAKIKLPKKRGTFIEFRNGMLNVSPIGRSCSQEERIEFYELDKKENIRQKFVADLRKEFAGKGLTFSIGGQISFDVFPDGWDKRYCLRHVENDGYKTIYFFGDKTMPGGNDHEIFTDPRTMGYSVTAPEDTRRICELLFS
Data set [2] has as its system HEK293. Put plainly: cells. Format: functional, cell-based. The note with it: Homo sapiens.
Data set [3] is described as follows: CRF-BP/CRF-R2 complex antagonists, dose response, cell-based, uHTS hits, 384-well (AID 651639). The note with it: read-out: IC50_Mean. Format: functional, Homo sapiens.
The subject of data set [4] is HEK293. Put plainly: cells. The note with it: Homo sapiens.
The subject of data set [5] is HEK293. Briefly: NOD1 signaling inhibitors, primary screen, cell-based, luminescence, uHTS (AID 1578). In kind it is functional. The note with it: Homo sapiens.
For data set [6], the system named is HEK293. Briefly: NOD2 signaling inhibitors in MDP-stimulated cells, cell-based, uHTS, luminescence (AID 2001). The note with it: Homo sapiens. Format: functional.
Data set [7] deals with T2, Corticotropin-releasing factor receptor 2/Corticotropin-releasing factor-binding protein (Homo sapiens, UniProt P24387+Q13324).
T2 sequence (Q13324 whole entry): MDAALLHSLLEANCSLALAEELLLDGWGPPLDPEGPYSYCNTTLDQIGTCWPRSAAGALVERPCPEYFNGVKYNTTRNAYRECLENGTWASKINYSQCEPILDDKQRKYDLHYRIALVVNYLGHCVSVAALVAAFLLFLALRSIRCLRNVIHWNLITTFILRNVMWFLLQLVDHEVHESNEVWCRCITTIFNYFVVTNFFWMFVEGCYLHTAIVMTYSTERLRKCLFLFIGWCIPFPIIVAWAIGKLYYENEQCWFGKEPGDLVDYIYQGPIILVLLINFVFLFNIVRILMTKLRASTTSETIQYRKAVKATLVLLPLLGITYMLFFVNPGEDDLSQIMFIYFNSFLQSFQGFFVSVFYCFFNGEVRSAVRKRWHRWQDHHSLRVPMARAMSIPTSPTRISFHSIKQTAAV
T2 sequence (P24387 whole entry): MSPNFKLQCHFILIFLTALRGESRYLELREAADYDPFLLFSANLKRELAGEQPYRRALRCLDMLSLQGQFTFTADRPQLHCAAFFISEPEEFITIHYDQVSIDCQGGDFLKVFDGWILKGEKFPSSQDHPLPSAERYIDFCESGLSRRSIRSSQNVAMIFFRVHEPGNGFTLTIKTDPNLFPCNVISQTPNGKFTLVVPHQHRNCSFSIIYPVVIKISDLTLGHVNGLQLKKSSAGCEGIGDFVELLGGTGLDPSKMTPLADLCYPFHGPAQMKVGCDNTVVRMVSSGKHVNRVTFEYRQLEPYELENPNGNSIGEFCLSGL
Put plainly: Dose Response confirmation of uHTS hits for small molecule antagonists of the CRF-binding protein and CRF-R2 receptor complex. Format: functional. The note with it: read-out: IC50_Mean.

Data set [8] has as its system HEK293. Briefly: cells. Format: functional, cell-based. The note with it: Homo sapiens. The source holds these as a separate data set.
Data set [9] deals with Nucleotide-binding oligomerization domain-containing protein 1 (Homo sapiens, UniProt Q9Y239). Put plainly: NOD1 signaling inhibitors, SAR follow-up, revised (AID 2333). Format: functional.
Nucleotide-binding oligomerization domain-containing protein 1, sequence (Q9Y239 whole entry, the tested form may be a part): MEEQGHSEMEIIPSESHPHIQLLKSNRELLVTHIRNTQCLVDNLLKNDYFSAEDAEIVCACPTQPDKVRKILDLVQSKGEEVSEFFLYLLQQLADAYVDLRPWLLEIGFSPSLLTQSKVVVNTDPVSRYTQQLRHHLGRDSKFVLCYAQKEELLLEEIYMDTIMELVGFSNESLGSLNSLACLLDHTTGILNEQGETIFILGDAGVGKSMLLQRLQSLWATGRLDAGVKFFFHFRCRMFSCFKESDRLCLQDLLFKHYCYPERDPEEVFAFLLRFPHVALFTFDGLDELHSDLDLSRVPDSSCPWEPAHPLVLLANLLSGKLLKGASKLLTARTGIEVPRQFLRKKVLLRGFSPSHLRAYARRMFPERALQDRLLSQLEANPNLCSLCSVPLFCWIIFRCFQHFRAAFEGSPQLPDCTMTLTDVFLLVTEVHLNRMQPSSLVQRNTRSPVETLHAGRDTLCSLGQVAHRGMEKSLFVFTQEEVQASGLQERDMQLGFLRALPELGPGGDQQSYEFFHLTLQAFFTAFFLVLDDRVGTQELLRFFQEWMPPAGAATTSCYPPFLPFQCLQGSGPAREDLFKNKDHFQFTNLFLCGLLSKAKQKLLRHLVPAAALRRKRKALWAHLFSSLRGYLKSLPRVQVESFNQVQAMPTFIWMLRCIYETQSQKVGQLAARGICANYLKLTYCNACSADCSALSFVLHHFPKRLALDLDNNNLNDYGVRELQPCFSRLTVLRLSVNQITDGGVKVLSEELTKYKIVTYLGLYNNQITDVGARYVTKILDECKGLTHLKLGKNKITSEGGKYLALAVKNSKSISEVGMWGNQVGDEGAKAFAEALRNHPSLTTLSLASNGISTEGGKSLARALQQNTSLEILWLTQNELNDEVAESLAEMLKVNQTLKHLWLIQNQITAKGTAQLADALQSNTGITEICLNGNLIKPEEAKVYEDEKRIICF
Data set [10] has as its target T2, Corticotropin-releasing factor receptor 2/Corticotropin-releasing factor-binding protein. Briefly: activators of CRF receptor 2 with binding protein – uHTS hits, confirmation (AID 602473). The note with it: read-out: EC50_Mean. In kind it is functional.
Data set [11] addresses UDP-galactopyranose mutase (Mycobacterium tuberculosis, UniProt P9WIQ1). Briefly: Inhibitors of Mycobacterium tuberculosis UDP-galactopyranose mutase (UGM) enzyme Measured in Biochemical System Using Plate Reader - 2105-02_Inhibitor_Dose_CherryPick_Activity. [Related pubchem assays (depositor defined):AID504439].
For a further data set, the target named is ORF 73 (Human herpesvirus 8, UniProt O40947). Briefly: inhibitors of C-LANA binding to LBS DNA, dose response, biochemical, fluorescence polarization, cherry-picked samples (AID 504725).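 Also: fluorescence polarization of a labeled DNA duplex reporting LANA DNA binding; potency is for inhibitors that block LANA binding to the DNA.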 More on the design: species or system Human gammaherpesvirus 8.
ORF 73, sequence (O40947 whole entry): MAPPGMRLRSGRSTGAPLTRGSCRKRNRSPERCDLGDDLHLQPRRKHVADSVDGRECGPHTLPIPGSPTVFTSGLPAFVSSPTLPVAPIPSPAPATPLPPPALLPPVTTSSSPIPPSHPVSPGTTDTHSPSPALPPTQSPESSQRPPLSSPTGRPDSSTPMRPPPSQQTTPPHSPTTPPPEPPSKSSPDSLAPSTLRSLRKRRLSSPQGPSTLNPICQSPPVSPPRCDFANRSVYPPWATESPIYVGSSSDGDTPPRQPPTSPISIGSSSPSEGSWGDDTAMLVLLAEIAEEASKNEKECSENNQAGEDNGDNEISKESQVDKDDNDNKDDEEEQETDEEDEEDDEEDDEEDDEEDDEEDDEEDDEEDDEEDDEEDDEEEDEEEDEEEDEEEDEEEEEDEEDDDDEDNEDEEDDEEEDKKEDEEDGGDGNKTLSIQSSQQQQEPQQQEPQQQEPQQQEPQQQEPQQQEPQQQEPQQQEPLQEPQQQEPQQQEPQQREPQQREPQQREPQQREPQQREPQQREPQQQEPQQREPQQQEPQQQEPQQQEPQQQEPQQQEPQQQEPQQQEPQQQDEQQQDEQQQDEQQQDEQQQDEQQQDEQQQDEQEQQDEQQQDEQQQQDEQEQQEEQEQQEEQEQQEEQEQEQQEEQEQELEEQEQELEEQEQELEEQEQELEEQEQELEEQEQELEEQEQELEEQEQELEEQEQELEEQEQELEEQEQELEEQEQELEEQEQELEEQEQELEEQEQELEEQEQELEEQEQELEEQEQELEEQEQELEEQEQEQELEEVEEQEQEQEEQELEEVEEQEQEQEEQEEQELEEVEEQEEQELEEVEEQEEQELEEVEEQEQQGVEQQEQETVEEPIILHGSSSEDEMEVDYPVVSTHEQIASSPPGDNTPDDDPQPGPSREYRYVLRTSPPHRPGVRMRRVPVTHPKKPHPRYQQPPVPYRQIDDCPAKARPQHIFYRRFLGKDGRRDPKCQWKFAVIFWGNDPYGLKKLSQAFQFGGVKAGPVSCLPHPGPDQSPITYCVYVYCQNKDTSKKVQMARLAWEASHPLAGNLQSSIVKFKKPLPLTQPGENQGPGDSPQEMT
Another data set relates to HeLa. Briefly: HeLa cell cytotoxicity, dose response, cytotoxicity control, 24 h, cherry-picked samples (AID 504726).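 Also: potency for cytotoxicity as loss of luminescence signal.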 In kind it is functional, cell-based. The note with it: Homo sapiens.
The next data set addresses Ephrin type-A receptor 4 (Mus musculus, UniProt Q03137). Briefly: inhibitors of EphA4 binding to KYL peptide, primary screen, biochemical, colorimetric, mouse EphA4 (AID 689). In kind it is functional.
The next data set addresses Cytochrome P450 2D6 (Homo sapiens, UniProt P10635).

Cytochrome P450 2D6, sequence (P10635 whole entry): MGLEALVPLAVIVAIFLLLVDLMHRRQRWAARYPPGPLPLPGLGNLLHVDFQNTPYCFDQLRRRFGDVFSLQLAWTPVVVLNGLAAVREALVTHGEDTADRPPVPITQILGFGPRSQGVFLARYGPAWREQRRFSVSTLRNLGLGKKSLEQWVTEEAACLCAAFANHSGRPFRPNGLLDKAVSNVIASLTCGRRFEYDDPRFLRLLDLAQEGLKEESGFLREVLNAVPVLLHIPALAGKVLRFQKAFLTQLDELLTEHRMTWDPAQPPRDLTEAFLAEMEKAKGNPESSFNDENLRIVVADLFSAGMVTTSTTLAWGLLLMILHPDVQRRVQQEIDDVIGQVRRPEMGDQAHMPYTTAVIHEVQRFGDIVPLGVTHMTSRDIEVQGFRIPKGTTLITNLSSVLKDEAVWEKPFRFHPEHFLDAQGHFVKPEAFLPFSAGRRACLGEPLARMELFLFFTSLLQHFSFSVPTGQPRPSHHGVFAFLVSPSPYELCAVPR
UDP-galactopyranose mutase, sequence (P9WIQ1 whole entry): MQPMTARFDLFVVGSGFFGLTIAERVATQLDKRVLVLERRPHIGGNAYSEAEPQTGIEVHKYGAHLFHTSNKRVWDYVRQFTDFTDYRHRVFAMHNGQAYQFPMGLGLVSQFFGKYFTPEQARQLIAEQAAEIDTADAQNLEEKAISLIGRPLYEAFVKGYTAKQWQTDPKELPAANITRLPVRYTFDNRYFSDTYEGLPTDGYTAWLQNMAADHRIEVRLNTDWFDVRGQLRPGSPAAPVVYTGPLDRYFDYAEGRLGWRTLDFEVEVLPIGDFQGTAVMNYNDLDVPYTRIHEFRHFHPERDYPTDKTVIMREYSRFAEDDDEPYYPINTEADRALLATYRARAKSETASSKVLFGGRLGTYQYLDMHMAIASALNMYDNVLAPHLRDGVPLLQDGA
Ephrin type-A receptor 4, sequence (Q03137 whole entry): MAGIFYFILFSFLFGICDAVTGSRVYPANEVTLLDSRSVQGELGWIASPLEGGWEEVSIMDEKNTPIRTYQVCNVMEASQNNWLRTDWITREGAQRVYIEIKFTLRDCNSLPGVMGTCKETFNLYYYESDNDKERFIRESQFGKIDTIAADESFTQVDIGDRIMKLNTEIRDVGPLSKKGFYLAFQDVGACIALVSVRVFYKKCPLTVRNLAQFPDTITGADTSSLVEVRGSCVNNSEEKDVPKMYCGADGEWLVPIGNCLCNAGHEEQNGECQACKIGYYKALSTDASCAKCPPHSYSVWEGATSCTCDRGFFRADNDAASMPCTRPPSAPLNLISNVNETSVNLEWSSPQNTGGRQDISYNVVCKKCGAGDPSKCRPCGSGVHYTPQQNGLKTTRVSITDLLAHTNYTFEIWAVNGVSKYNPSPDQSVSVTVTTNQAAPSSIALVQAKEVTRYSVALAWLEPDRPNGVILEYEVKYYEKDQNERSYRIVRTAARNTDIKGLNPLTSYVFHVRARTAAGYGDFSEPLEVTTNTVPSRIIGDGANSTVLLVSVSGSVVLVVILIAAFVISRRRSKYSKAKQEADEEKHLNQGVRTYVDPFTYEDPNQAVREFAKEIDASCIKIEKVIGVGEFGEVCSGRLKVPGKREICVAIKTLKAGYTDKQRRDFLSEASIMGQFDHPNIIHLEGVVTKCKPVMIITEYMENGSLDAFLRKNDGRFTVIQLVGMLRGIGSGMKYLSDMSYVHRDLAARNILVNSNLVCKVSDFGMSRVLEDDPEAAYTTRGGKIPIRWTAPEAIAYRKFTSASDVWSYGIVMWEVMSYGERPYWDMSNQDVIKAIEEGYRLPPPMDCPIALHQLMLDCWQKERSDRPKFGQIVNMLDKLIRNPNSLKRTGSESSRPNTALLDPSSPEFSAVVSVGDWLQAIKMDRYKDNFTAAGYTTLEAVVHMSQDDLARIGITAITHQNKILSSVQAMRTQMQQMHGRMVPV

Take `COc1cc(N=c2ssnc2Cl)cc(OC)c1OC`: the values for the IC50 (in data set [1]; on Phosphomannomutase 2) were 2.91 µM (active) and > 100 µM (inactive), respectively.
Take `O=C(Nc1nc2c(F)cc(F)cc2s1)c1ccc([N+](=O)[O-])o1`: the IC50 was > 20 µM (inactive) in the data set on HEK293 [2]; > 20 µM (inactive) in [3]; > 20 µM (inactive) in the data set on HEK293 [4]; 15.5 µM (inactive) in the data set on HEK293 [6]; 4.95 µM (active) in data set [7]; > 20 µM (inactive) with HEK293 [8]. Besides, the IC50 in data set [9] was 7.18 µM (active). Besides, the EC50 in the data set on HEK293 [5] is 12 µM (active); in data set [10], > 53 µM (inactive).
Consider `CCCCCn1nc(-c2ccccc2)c2nc3ccccc3nc21`, for which the figures for the AC50 (in data set [11]; at ORF 73; in the data set on HeLa) were 31.7 µM (active), 56.5 µM (active) and > 350 µM (inactive), respectively. Moreover, on Ephrin type-A receptor 4, the IC50 is 6.11 µM (active). Also, in [10], the EC50 was 4.97 µM (active).
In the case of `CCCS(=O)(=O)N1CCCC(C(=O)NCCCOCC)C1` (configuration not stated), the AC50 entry on Cytochrome P450 2D6 is recorded as “inconclusive”.
